Results published in paper PMC6940745 (International Journal of Molecular Sciences, 2019).
pEC50: −log10 of the molar value. Where a SMILES comes first, the peptide text is derived from it. [ ]: non-standard residue; d: D form. The star is where a group is joined. Bz = O=C(c1ccccc1)*; NPr2 = CCCN(CCC)*

Tests used:
MT1R = target: T1, MT1R (Homo sapiens, UniProt P48039); assay: MT1R activation, GTPγS scintillation proximity assay on CHO-K1 membranes; type: biochemical; settings: eight concentrations, 0.01 to 100,000 nM
T1 construct: host or cells: CHO-K1 (membrane preparations)
Procedure: (§1) Melatonin (MT1R and MT2R) and opioid receptor (OP1R, OP2R, and OP3R, corresponding to human delta, kappa, and mu opioid receptors) activation assays were performed by means of GTPγS scintillation proximity assays. For agonist testing, membrane preparations from CHO-K1 cells expressing each receptor (EuroscreenFast, Gosselies, Belgium) were mixed with guanosine diphosphate (GDP) (v/v). In parallel, GTPγ[^35S] (PerkinElmer, NEG030X, 0.1 nM final assay concentration) was mixed with PVT-WGA beads (Perkin Elmer, RPNQ001, 0.5 mg/well final assay density) (v/v) just before starting the reaction. The following reagents were then successively added in the wells of an Optiplate (Perkin Elmer): A total of 50 µL of test or reference ligand diluted in assay buffer, 10 µL of assay buffer (20 mM HEPES pH 7.4; 100–200 mM NaCl, 10 µg/mL saponin, MgCl2 at optimized concentration for the specific receptor, 0%–0.1% BSA), 20 µL of the membranes: GDP mix, and 20 µL of the GTPγ[^35S]: Beads mix. The plates were covered with a top seal, mixed on an orbital shaker for 2 min, and then incubated for 1 h at room temperature. Then the plates were centrifuged for 10 min at 2000 rpm, incubated at room temperature for 1 h, and counted for 1 min/well with a PerkinElmer TopCount™ reader.

TYRP-1 = TYRP-1 protein expression in human skin ex vivo (immunohistochemistry); type: cell-based; settings: topical 30, 100 and 200 µM, six days; p < 0.05
Procedure: Following declaration of Helsinki principles (DoH-Oct2013, World Medical Association, Ferney-Voltaire, France), human skin samples were obtained from elective plastic surgery after informed consent was obtained. For the two experiments shown in Figure 2, Figure 3 and Figure 4, we had one person with an individual topology angle (ITA°) of 18, and one person with an ITA° of 39 [69]. The skin samples were cut in pieces of 8 × 3 mm and cultured up to day 6. Skin samples were cultured in an air–liquid interface in a perforated ring of stainless steel in contact with culture medium (modified Williams’ E medium). The culture medium was renewed every three days (i.e., day 0–3). Compounds were added daily in DMSO at 4 µL volume. At day 6, the skin samples were fixed in formalin, embedded in paraplast, and cut at the microtome for histochemical staining and consequent image analysis. Six skin biopsies were used for each single treatment.
Twelve skin sections from the ex vivo melanogenesis experiment above were immunoassayed with the selected antibodies (TYR, Thermo Scientific #MS-800-P0 (Thermo Scientific, Waltham, MA, USA); TYRP-1, Covance #SIG-38150 (Covance Inc., Princeton, NJ, USA), MITF, Abcam #ab80651 (Abcam plc, Cambridge, UK). The number of positive cells within the epidermis was counted and the value was normalized upon the length of the basal lamina, thus obtaining a score. […]

human 5-HT2AR = human 5-HT2AR (Homo sapiens, UniProt P28223); assay: 5-HT2AR activation, Aequorin assay; type: cell-based; settings: eight concentrations, 0.01 to 100,000 nM
Procedure: (§2) Melanin-concentrating hormone receptor (MCHR), endothelin-1 receptor (ETBR), and serotonin-receptor (5-HT2AR) assays were performed by means of Aequorin assays. Recombinant cells co-expressing human MCH1R, MCH2R, ETBR, or 5-HT2AR and mitochondrial apoaequorin (MCH1R, MCH2R and 5-HT2AR cells also co-express recombinant Gα16 protein) (EuroscreenFast, Gosselies, Belgium), grown 18 h prior to the test in media without antibiotics, were detached by gentle flushing with PBS-EDTA (5 mM EDTA), recovered by centrifugation, and resuspended in assay buffer (DMEM/HAM’s F12 with HEPES + 0.1% BSA protease free). Cells were incubated under agitation at room temperature for at least 4 h with Coelenterazine h (Promega, X300X, 0.5 µM final concentration). Dose response curves with the reference compounds were performed before testing the compounds. For agonist testing, 50 µL of cell suspension was injected on 50 µL of test compound or reference agonist diluted in assay buffer and plated in a 96-well plate. The resulting emission of light was recorded using the Hamamatsu Functional Drug Screening System 6000 (FDSS 6000). […] Agonist activity of test compound was expressed as a percentage of the activity of the reference agonist at its EC100 concentration.

MC1R = MC1R expression in ex vivo epidermis in the presence of UVA; type: cell-based, human; settings: ex vivo epidermis in the presence of UVA (Figure S1)
human MCH2R = human MCH2R (Homo sapiens, UniProt Q969V1); assay: MCH2R activation, Aequorin assay; type: cell-based; settings: eight concentrations, 0.01 to 100,000 nM
Procedure: as §2

human MCH1R = human MCH1R (Homo sapiens, UniProt Q99705); assay: MCH1R activation, Aequorin assay; type: cell-based; settings: eight concentrations, 0.01 to 100,000 nM
Procedure: as §2

MC2R = target: T2, MC2R (Homo sapiens, UniProt Q01718); assay: MC2R activation, cAMP HTRF assay in CHO-K1 cells; type: cell-based
T2 construct: host or cells: CHO-K1
Procedure: MCR-activation assays were performed by means of a cAMP HTRF (homogeneous time resolved fluorescence) assay for Gs-coupled receptors (cAMP Gs dynamic kit, Cisbio bioassays, 62AM4PEC). CHO-K1 cells expressing human recombinant MC1 receptor (EuroscreenFast, Gosselies, Belgium) (or MC2R, MC3R, MC4R, MC5R) were grown prior to the test in media without antibiotic. They were detached by gentle flushing with PBS-EDTA (5 mM EDTA), recovered by centrifugation, and resuspended in assay buffer (5 mM KCl, 1.25 mM MgSO4, 124 mM NaCl, 25 mM HEPES, 13.3 mM Glucose, 1.25 mM KH2PO4, 1.45 mM CaCl2, 0.5 g/L BSA, supplemented with 1 mM IBMX). Dose response curves were performed in parallel with the reference compounds. For agonist test (96-well), 12 µL of cells were mixed with 12 µL of the test compound diluted at increasing concentrations in assay buffer, and then incubated for 30 min at room temperature. After addition of the lysis buffer and 1 h incubation, fluorescence signal was measured, according to the manufacturer’s specifications, with the homogeneous time resolved fluorescence (HTRF) kit.

MT2R = target: T3, MT2R (Homo sapiens, UniProt P49286); assay: MT2R activation, GTPγS scintillation proximity assay on CHO-K1 membranes; type: biochemical; settings: eight concentrations, 0.01 to 100,000 nM
T3 construct: host or cells: CHO-K1 (membrane preparations)
Procedure: as §1

T2 sequence (Q01718 whole entry): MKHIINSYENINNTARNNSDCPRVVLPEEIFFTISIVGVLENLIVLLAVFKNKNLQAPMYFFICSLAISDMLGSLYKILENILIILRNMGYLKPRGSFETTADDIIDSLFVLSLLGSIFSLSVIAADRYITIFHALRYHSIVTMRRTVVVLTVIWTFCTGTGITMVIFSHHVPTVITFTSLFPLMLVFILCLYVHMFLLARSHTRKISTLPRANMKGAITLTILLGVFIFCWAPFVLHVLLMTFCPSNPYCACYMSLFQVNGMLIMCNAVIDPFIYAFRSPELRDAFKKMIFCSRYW
T2 sequence (Q8TCY5 whole entry partner): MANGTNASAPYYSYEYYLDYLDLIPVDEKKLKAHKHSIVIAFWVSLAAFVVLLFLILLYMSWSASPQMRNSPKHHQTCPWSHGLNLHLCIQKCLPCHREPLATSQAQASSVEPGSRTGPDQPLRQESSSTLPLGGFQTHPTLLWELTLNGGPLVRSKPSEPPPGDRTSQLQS
T3 sequence (P49286 whole entry): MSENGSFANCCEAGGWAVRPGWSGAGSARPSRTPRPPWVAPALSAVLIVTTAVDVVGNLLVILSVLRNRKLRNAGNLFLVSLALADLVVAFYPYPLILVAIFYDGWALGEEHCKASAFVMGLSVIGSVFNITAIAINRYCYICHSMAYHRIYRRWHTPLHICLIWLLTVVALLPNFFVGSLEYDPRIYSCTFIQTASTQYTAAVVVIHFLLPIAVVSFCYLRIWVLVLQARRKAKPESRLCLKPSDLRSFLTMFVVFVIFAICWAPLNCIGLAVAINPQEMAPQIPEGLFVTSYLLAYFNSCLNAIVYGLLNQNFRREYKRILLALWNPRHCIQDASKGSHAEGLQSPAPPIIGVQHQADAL
T1 sequence (P48039 whole entry): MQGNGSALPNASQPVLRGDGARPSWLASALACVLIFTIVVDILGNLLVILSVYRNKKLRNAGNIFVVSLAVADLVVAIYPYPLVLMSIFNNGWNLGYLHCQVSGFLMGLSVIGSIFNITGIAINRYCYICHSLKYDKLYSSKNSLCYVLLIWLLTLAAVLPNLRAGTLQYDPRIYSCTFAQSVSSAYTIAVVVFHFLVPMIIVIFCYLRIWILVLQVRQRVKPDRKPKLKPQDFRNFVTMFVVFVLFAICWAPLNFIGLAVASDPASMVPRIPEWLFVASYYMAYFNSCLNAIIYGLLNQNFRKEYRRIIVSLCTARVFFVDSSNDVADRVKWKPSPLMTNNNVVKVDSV
Sequence of human MCH2R (Q969V1 whole entry): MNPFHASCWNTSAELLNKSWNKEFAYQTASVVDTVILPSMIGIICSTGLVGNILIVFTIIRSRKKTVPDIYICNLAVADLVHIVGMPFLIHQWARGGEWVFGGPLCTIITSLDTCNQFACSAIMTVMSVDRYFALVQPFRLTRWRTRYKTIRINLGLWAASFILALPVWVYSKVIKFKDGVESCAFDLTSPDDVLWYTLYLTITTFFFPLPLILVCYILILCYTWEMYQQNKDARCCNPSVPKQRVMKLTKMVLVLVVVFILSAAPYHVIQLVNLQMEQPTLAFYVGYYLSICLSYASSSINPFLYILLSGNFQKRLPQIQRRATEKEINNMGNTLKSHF
Sequence of human 5-HT2AR (P28223 whole entry): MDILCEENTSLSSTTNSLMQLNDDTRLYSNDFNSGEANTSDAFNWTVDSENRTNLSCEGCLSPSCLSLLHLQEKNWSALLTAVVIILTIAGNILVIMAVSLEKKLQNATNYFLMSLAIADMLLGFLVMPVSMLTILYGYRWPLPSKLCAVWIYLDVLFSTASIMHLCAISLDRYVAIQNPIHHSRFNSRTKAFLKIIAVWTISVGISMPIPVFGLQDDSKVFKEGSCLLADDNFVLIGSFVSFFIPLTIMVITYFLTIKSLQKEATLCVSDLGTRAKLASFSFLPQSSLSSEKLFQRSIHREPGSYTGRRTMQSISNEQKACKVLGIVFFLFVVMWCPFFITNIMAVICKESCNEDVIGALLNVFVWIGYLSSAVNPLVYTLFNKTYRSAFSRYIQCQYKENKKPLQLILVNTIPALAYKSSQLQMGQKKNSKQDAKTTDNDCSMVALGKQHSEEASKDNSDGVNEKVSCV
Sequence of human MCH1R (Q99705 whole entry): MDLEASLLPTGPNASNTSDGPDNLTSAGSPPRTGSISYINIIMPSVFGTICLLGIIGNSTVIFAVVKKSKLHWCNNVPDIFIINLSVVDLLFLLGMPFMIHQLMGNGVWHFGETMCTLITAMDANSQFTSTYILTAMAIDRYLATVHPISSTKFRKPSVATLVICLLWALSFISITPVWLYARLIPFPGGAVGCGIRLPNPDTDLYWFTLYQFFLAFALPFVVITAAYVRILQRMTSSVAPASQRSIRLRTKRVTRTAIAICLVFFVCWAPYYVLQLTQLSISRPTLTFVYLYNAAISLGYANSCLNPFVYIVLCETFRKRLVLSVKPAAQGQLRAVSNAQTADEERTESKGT

Question: With CCCN(CCC)C(=O)[C@@H](Cc1c[nH]c2ccccc12)NC(=O)[C@H](CCCNC(=N)N)NC(=O)[C@@H](Cc1ccccc1)NC(=O)[C@H](Cc1c[nH]cn1)NC(=O)CNC(=O)c1ccccc1 [Peptide 4] (Bz-GH[dF]R[dW]-NPr2) as the compound, how does the pEC50 (MT1R) read?
Answer: Its pEC50 is less than 4.00.

Question: And the “Maximal induction of TYRP-1 protein expression vs vehicle” value (TYRP-1)?
Answer: The value was 72%.

Question: And the pEC50 (human 5-HT2AR)?
Answer: The pEC50 was less than 4.00.

Question: And the “Influence on expression of MC1R” value (MC1R)?
Answer: The value was “no influence”.

Question: What about the pEC50 (human MCH2R) of the same compound?
Answer: The pEC50 was less than 4.00.

Question: And the pEC50 (human MCH1R)?
Answer: The pEC50 was less than 4.00.

Question: And the pEC50 (MC2R; eight concentrations, 0.01 to 100,000 nM)?
Answer: Its pEC50 is less than 4.00.

Question: What about the “Activation of MC2R” value (MC2R; up to 100 µM) of the same compound?
Answer: Its value is “no significant activation”.

Question: What about the pEC50 (MT2R) of the same compound?
Answer: Its pEC50 is less than 4.00.
